This is an account of results in ChEMBL document CHEMBL1157035, “Synthesis and biological evaluation of water-soluble organogermanium” (Eur J Med Chem, 2010).

What all share (assay type): functional, organism-based
The test system of experiment [1] is Mus musculus. Kind of experiment: Immunoregulatory activity in ICR mouse assessed as increase in serum IFN-gamma level at 300 mg/kg, po after 24 hrs by ELISA. Details: dose 300 mg/kg.
Experiment [2] has as its system Mus musculus. As to the kind of experiment: Immunoregulatory activity in ICR mouse assessed as increase in serum IFN-gamma level at 100 mg/kg, po after 12 hrs by ELISA. Also noted: dose 100 mg/kg.
The subject of experiment [3] is Mus musculus. Kind of experiment: Immunoregulatory activity in ICR mouse assessed as increase in serum IFN-gamma level at 100 mg/kg, po after 12 to 24 hrs by ELISA. Details: dose 100 mg/kg. For orientation: In an ELISA, binding on a coated surface is turned into a signal by an enzyme label.
For experiment [4], the system named is Mus musculus. Kind of experiment: Immunoregulatory activity in po dosed ICR mouse assessed as increase in serum IFN-gamma level after 24 hrs by ELISA.
In experiment [5] the test system is Mus musculus. Kind of experiment: Immunoregulatory activity in ICR mouse assessed as increase in serum IFN-gamma level at 100 mg/kg, po after 24 hrs by ELISA. Details: dose 100 mg/kg.

The source made the active and inactive calls. The calls are words filed in the database; no cut-off is given here.

“6-O-[3-(trimethylgermyI)propyl]-beta-D-glucopyranoside”: the Activity in the experiment with Mus musculus [1] is 600 pg/mL; with Mus musculus [4], “Dose-dependent effect”. The result in the experiment on Mus musculus [2] was inactive. For the same substance, the outcome in the experiment on Mus musculus [3] was Active.
As for GERMANIUM SESQUIOXIDE, the outcome in the experiment on Mus musculus [2] was inactive. For the same substance, the Activity in the experiment with Mus musculus [5] was determined as 320 pg/mL. Besides, in the experiment on Mus musculus [3], the outcome was Active.
